The values that follow come from patent US7935723B2, “Use of organic compounds” (Novartis Pharma AG, priority 2004, dated 2011).

The structures appear in SMILES notation.

For data set [1], the system named is patients with Type 2 diabetes. As to the kind of experiment: Clinical study: safety and tolerability, study completion. To be noted: 52 weeks, in combination with metformin. Type of data set: in vivo, human. An excerpt:
Safety assessments consist of monitoring and recording all non-serious and serious adverse events (SAE), the regular monitoring of hematology, blood chemistry and urinalysis values, regular measurement of vital signs, the performance of physical examinations and body weight measurements. The assessment of safety is based mainly on the frequency of adverse events and on the number of laboratory values that fall outside of pre-determined ranges. Other safety data (e.g. vital signs) will be considered as appropriate.

Data set [2] concerns patients with Type 2 diabetes. As to the kind of experiment: Clinical study (12-week core + 40-week extension): HbA1c in patients with Type 2 diabetes on metformin. Type of data set: in vivo, human. To be noted: over one year. Here is the method:
This is a 40-week extension to core study, a 12-week randomized, parallel group, multi-center, placebo-controlled trial in patients with Type 2 diabetes who are already receiving metformin at a stable dosage of 1500-3000 mg daily. Patients treated with placebo, LAF237 50 mg OD (omnia die/once a day) in addition to metformin during the core study and maintained their treatment regimen in the extension. […] All patients are randomized to receive either placebo or LAF237 (50 mg) once dally for 52 weeks in addition to metformin at an unchanged dosage. During the 4-week run-in period, all patients receive LAF237 placebo tablets and are assessed for inclusion in the study. Patients meeting the inclusion criteria at the Baseline visit receives randomized treatment once daily for 52 weeks. The total study duration for each patient is 56 weeks. Throughout the study, patients are required to maintain their prior diet and exercise habits and to continue to take metformin at an unchanged dosage. […] This is measured by using Tosoh ion exchange High Performance Liquid Chromotography (HPLC). Primus Affinity HPLC is used as a back-up method if hemoglobin variants or hemoglobin degradation peaks are observed. The primary efficacy variable is change from baseline in HbA1c at the end of the study. […]

As for `N#C[C@@H]1CCCN1C(=O)CNC12CC3CC(CC(O)(C3)C1)C2` [LAF237, (S)-1-[(3-hydroxy-1-adamantyl)amino]acetyl-2-cyano-pyrrolidine], the tolerability result in data set [1] was “well tolerated”. Further, the “course of HbA1c levels (in words)” value in data set [2] is reported as “decreased significantly”.
